{"source": "paper PMC10449633", "about": "(Nature Chemical Biology, 2023)", "key": {"[1]": {"test_system": "SARS-CoV-2", "assay_type": "cell-based", "conditions": "48 h"}, "[2]": {"test_system": "Sec61 WT TNFa(FL) reporter cells", "test": "CTG (CellTiter-Glo) viability of TNFa(FL) reporter cells expressing Sec61 WT", "assay_type": "cell-based", "conditions": "replicate columns", "from_the_text": "Supplement 41589_2023_1326_MOESM7_ESM.xlsx, sheet \"Panel B\" | column: Sec61 WT - CTG (TNFa(FL))"}, "[3]": {"test_system": "human PBMCs", "conditions": "concentrations up to 20 µM; PBMCs and splenocytes"}, "[4]": {"target": "Sec61α T86M (Canis lupus familiaris, UniProt P38377, T86M)", "sequence (P60468 whole entry)": "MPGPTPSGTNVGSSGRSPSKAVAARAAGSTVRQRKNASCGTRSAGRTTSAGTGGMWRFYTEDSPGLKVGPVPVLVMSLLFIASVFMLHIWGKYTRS", "sequence (P38377 whole entry T86M)": "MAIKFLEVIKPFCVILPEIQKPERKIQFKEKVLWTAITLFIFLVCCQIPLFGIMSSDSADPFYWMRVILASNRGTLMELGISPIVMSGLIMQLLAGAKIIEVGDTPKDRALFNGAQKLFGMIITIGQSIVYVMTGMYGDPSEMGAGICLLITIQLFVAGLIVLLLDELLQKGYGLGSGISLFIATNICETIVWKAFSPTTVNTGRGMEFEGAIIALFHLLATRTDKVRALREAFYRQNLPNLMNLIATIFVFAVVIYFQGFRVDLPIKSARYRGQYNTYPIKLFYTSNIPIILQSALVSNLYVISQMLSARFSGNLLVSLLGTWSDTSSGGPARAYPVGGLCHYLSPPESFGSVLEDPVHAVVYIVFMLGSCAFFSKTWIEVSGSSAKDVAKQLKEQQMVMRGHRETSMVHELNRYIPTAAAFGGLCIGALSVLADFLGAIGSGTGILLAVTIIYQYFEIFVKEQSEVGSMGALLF", "sequence (P60059 whole entry, further chain)": "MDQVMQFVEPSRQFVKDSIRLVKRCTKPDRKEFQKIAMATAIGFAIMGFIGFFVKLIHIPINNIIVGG", "test": "Luciferase reporter assay in HEK293 cells expressing Sec61α T86M", "conditions": "HEK293, 24 h, read-out: luciferase reporter activity (% of no-drug control), T86M", "description": "(§1) Data are mean values ± s.d. from n = 2 independent experiments.\n(§2) HEK293T cells (0.3 × 10^6) were seeded per well of a six-well plate and incubated at 37 °C in 5% CO2 for 24 h to adhere. Each of the two wells was transfected with 1 µg of plasmid encoding a luciferase with the signal peptide of either VCAM1 or pPL using PEI in a 5:1 ratio, after which cells were returned to the incubator for a further 24 h. Transfected cells were then resuspended following trypsinization, cell count estimated using a TC20 Automated Cell Counter (BioRad) and diluted to seed a 96-well flat-bottom plate with 1.6 × 10^4 cells per well. […] Cells were then incubated for a further 24 h, after which the luciferase-containing media were transferred to a clean 96-well plate and stored at −20 °C. Luciferase activity of the media was estimated using a Gaussia-GLOW Juice Luciferase Assay kit from PJK Biotech GmbH as per the manufacturer’s instructions. Luminescence was measured using an EnSpire Multimode plate reader (PerkinElmer). Background luminescence from media placed in a well with neither cells nor drug was subtracted from all values, and measurements were calculated as a percentage of luminescence intensity of a well expressing the appropriate luciferase construct in the absence of any drug. Curves were fitted, and IC50 values were calculated using GraphPad Prism 8.\nHEK293 Flp-In T-REx cells (Thermo Fisher Scientific, R78007) were cultured in Dulbecco’s modified Eagle’s medium (Gibco) supplemented with 10% FBS (Gibco) at 37 °C in a humidified 5% CO2 atmosphere. Approximately 0.3 µg of pOG44 and 1 µg of targeting construct plasmids were mixed in 250 µl of OptiMEM (Thermo Fisher Scientific, 51985-026). A total of 3 µl (3 µg) Lipofectamine3000 transfection reagent was then added to the DNA mix and incubated at room temperature for 20 min, and the whole mixture was added to the cells. Cells were exposed to 100 µg ml^−^1 hygromycin B (Invitrogen) and 10 µg ml^−^1 blasticidin for 3–4 weeks until the appearance of resistant colonies. Colonies were expanded into T75 flasks and induced with doxycycline (Sigma-Aldrich, D9891) at a concentration of 1–5 µg ml^−^1 for 48 h. Cells were collected, and total RNA was extracted followed by cDNA amplification and sequencing of Sec61 with gene-specific PCR primers to confirm. Cells were then used for the luciferase reporter assays as above.\n(§3) Data are mean values ± SD and are representative of n = 2 independent experiments."}, "[5]": {"target": "Sec61α Q127A (Canis lupus familiaris, UniProt P38377, Q127A)", "sequence (P60059 whole entry)": "as the sequence (P60059 whole entry, further chain) above", "sequence (P60468 whole entry, further chain)": "as the sequence (P60468 whole entry) above", "sequence (P38377 whole entry Q127A)": "as the sequence (P38377 whole entry T86M) above, with M86T, Q127A counted along it", "test": "Luciferase reporter assay in HEK293 cells expressing Sec61α Q127A", "design": "remaining activity: dose or concentration left out as unconfirmed", "conditions": "HEK293, 24 h, read-out: luciferase reporter activity (% of no-drug control), Q127A", "description": "as §1, §2\n(§4) WT canine Sec61 was cloned into pcDNA5/FRT/TO (Thermo Fisher Scientific), and point mutations were generated using PCR. All mutants were sequence verified. HEK293 Flp-In T-REx cells (Thermo Fisher Scientific, R78007) were cultured in Dulbecco’s modified Eagle’s medium (Gibco) supplemented with 10% FBS (Gibco) at 37 °C in a humidified 5% CO2 atmosphere. Approximately 0.3 µg of pOG44 and 1 µg of targeting construct plasmids were mixed in 250 µl of OptiMEM (Thermo Fisher Scientific, 51985-026). A total of 3 µl (3 µg) Lipofectamine3000 transfection reagent was then added to the DNA mix and incubated at room temperature for 20 min, and the whole mixture was added to the cells. Cells were exposed to 100 µg ml^−^1 hygromycin B (Invitrogen) and 10 µg ml^−^1 blasticidin for 3–4 weeks until the appearance of resistant colonies. Colonies were expanded into T75 flasks and induced with doxycycline (Sigma-Aldrich, D9891) at a concentration of 1–5 µg ml^−^1 for 48 h. Cells were collected, and total RNA was extracted followed by cDNA amplification and sequencing of Sec61 with gene-specific PCR primers to confirm. Cells were then used for the luciferase reporter assays as above.\nas §3"}, "[6]": {"target": "Sec61α Q294A (Canis lupus familiaris, UniProt P38377, Q294A)", "sequence (P60059 whole entry)": "as the sequence (P60059 whole entry, further chain) above", "sequence (P38377 whole entry Q294A)": "as the sequence (P38377 whole entry T86M) above, with M86T, Q294A counted along it", "sequence (P60468 whole entry, further chain)": "as the sequence (P60468 whole entry) above", "test": "Luciferase reporter assay in HEK293 cells expressing Sec61α Q294A", "design": "remaining activity: dose or concentration left out as unconfirmed", "conditions": "HEK293, 24 h, read-out: luciferase reporter activity (% of no-drug control), Q294A", "description": "as §1, §2, §4, §3"}, "[7]": {"target": "Sec61α N300A (Canis lupus familiaris, UniProt P38377, N300A)", "sequence (P60468 whole entry)": "as above", "sequence (P60059 whole entry, further chain)": "as the sequence (P60059 whole entry, further chain) above", "sequence (P38377 whole entry N300A)": "as the sequence (P38377 whole entry T86M) above, with M86T, N300A counted along it", "test": "Luciferase reporter assay in HEK293 cells expressing Sec61α N300A", "design": "remaining activity: dose or concentration left out as unconfirmed", "description": "as §1, §2, §4, §3"}}, "note": "“And” between values parts separate entries of the source, which are not always exact repeats. Identical values can stand only once. Like-named read-outs stand apart in the source and are kept apart here. Numbered stars: 1 amine (or outer) side, 2 acyl side, 3 side chain; on linkers, the order of the positions; unused ones are H or OH. Square brackets hold non-standard residues; d marks the D form. Peptide text beside a SMILES is read from it. ξ: configuration not given here. X1 = CN(C(Cc1cn(Cc2ccc(Br)cc2)c2ccccc12)C(=O)[*:2])[*:1]; ξAla(CF3) = NC(CC(F)(F)F)C(=O)O; X2 = N#CCCC(O[*:1])C(=O)[*:2]; NMeL = CN[CH](CC(C)C)C(=O)O; NMeA = CN[CH](C)C(=O)O", "data": [{"compound": "CC(C)CC1NC(=O)C(Cc2cn(Cc3ccc(Br)cc3)c3ccccc23)N(C)C(=O)C(CC(F)(F)F)NC(=O)C(CC(C)C)N(C)C(=O)C(CC(F)(F)F)NC(=O)C(CCC#N)OC(=O)C(C)N(C)C1=O", "note": "(stereo not shown) [KZR-8445] (cyclo([X1]L[NMeA][X2][ξAla(CF3)][NMeL][ξAla(CF3)]); configuration not given here)", "values": [{"measurement": "viral genome copy number", "setting": "[1]; 0.04 uM", "value": "23500000 and 23900000 and 21400000"}, {"measurement": "viral genome copy number", "setting": "[1]; 0.12 uM", "value": "29500000 and 28600000 and 23600000"}, {"measurement": "viral genome copy number", "setting": "[1]; 0.37 uM", "value": "48700000 and 30700000 and 26200000"}, {"measurement": "viral genome copy number", "setting": "[1]; 1.11 uM", "value": "22100000 and 25700000 and 28600000"}, {"measurement": "viral genome copy number", "setting": "[1]; 3.33 uM", "value": "11600000 and 10500000 and 12800000"}, {"measurement": "viral genome copy number", "setting": "[1]; 10 uM", "value": "8080000 and 9090000 and 8060000"}, {"measurement": "Sec61 WT - CTG (TNFa(FL))", "setting": "[2]; 0.32 nM", "value": "111 and 110 and 116"}, {"measurement": "Sec61 WT - CTG (TNFa(FL))", "setting": "[2]; 1.6 nM", "value": "106 and 113 and 116"}, {"measurement": "Sec61 WT - CTG (TNFa(FL))", "setting": "[2]; 8 nM", "value": "110 and 111 and 115"}, {"measurement": "Sec61 WT - CTG (TNFa(FL))", "setting": "[2]; 40 nM", "value": "112 and 121 and 115"}, {"measurement": "Sec61 WT - CTG (TNFa(FL))", "setting": "[2]; 200 nM", "value": "108 and 114 and 116"}, {"measurement": "Sec61 WT - CTG (TNFa(FL))", "setting": "[2]; 1000 nM", "value": "105 and 108 and 113"}, {"measurement": "Sec61 WT - CTG (TNFa(FL))", "setting": "[2]; 5000 nM", "value": "95 and 105 (2×)"}, {"measurement": "Sec61 WT - CTG (TNFa(FL))", "setting": "[2]; 25000 nM", "value": "92 and 89 (2×)"}, {"measurement": "effects on cell viability", "setting": "[3]", "value": "minimal effects"}, {"measurement": "remaining activity at 0.00018303 µM", "setting": "[4]; Drug nM (log10) 0.18303", "value": 84.6, "unit": "%"}, {"measurement": "remaining activity at 0.000660151 µM", "setting": "[4]; Drug nM (log10) 0.660151", "value": 76, "unit": "%"}, {"measurement": "remaining activity at 0.00113727 µM", "setting": "[4]; Drug nM (log10) 1.13727", "value": 53.5, "unit": "%"}, {"measurement": "remaining activity", "setting": "[4]; Drug nM (log10) 1.61439", "value": 28.5, "unit": "%"}, {"measurement": "remaining activity", "setting": "[4]; Drug nM (log10) 2.09151", "value": 12.1, "unit": "%"}, {"measurement": "remaining activity", "setting": "[4]; Drug nM (log10) 2.56864", "value": 5.08, "unit": "%"}, {"measurement": "remaining activity", "setting": "[4]; Drug nM (log10) 3.04576", "value": 2.62, "unit": "%"}, {"measurement": "remaining activity", "setting": "[4]; Drug nM (log10) 3.52288", "value": 2.32, "unit": "%"}, {"measurement": "remaining activity at 0.004 µM", "setting": "[4]; Drug nM (log10) 4", "value": 2.59, "unit": "%"}, {"measurement": "remaining activity at 0.00018303 µM", "setting": "[5]; Drug nM (log10) 0.18303", "value": 76.3, "unit": "%"}, {"measurement": "remaining activity at 0.000660151 µM", "setting": "[5]; Drug nM (log10) 0.660151", "value": 76.5, "unit": "%"}, {"measurement": "remaining activity at 0.00113727 µM", "setting": "[5]; Drug nM (log10) 1.13727", "value": 51.2, "unit": "%"}, {"measurement": "remaining activity", "setting": "[5]; Drug nM (log10) 1.61439", "value": 32.3, "unit": "%"}, {"measurement": "remaining activity", "setting": "[5]; Drug nM (log10) 2.09151", "value": 14.7, "unit": "%"}, {"measurement": "remaining activity", "setting": "[5]; Drug nM (log10) 2.56864", "value": 6.52, "unit": "%"}, {"measurement": "remaining activity", "setting": "[5]; Drug nM (log10) 3.04576", "value": 3.21, "unit": "%"}, {"measurement": "remaining activity", "setting": "[5]; Drug nM (log10) 3.52288", "value": 2.56, "unit": "%"}, {"measurement": "remaining activity at 0.004 µM", "setting": "[5]; Drug nM (log10) 4", "value": 2.87, "unit": "%"}, {"measurement": "remaining activity at 0.000508 µM", "setting": "[5]; Drug nM (log10) -0.29409", "value": 88.9, "unit": "%"}, {"measurement": "remaining activity at 0.00018303 µM", "setting": "[6]; Drug nM (log10) 0.18303", "value": 80.7, "unit": "%"}, {"measurement": "remaining activity at 0.000660151 µM", "setting": "[6]; Drug nM (log10) 0.660151", "value": 67.2, "unit": "%"}, {"measurement": "remaining activity at 0.00113727 µM", "setting": "[6]; Drug nM (log10) 1.13727", "value": 44.1, "unit": "%"}, {"measurement": "remaining activity", "setting": "[6]; Drug nM (log10) 1.61439", "value": 22.4, "unit": "%"}, {"measurement": "remaining activity", "setting": "[6]; Drug nM (log10) 2.09151", "value": 11, "unit": "%"}, {"measurement": "remaining activity", "setting": "[6]; Drug nM (log10) 2.56864", "value": 4.26, "unit": "%"}, {"measurement": "remaining activity", "setting": "[6]; Drug nM (log10) 3.04576", "value": 2.2, "unit": "%"}, {"measurement": "remaining activity", "setting": "[6]; Drug nM (log10) 3.52288", "value": 1.85, "unit": "%"}, {"measurement": "remaining activity at 0.004 µM", "setting": "[6]; Drug nM (log10) 4", "value": 2.09, "unit": "%"}, {"measurement": "remaining activity at 0.000508 µM", "setting": "[6]; Drug nM (log10) -0.29409", "value": 89.6, "unit": "%"}, {"measurement": "remaining activity at 0.00018303 µM", "setting": "[7]; HEK293, 24 h, read-out: luciferase reporter activity (% of no-drug control), N300A, Drug nM (log10) 0.18303", "value": 95.9, "unit": "%"}, {"measurement": "remaining activity at 0.000660151 µM", "setting": "[7]; HEK293, 24 h, read-out: luciferase reporter activity (% of no-drug control), N300A, Drug nM (log10) 0.660151", "value": 88.9, "unit": "%"}, {"measurement": "remaining activity at 0.00113727 µM", "setting": "[7]; HEK293, 24 h, read-out: luciferase reporter activity (% of no-drug control), N300A, Drug nM (log10) 1.13727", "value": 80.9, "unit": "%"}, {"measurement": "remaining activity", "setting": "[7]; HEK293, 24 h, read-out: luciferase reporter activity (% of no-drug control), N300A, Drug nM (log10) 1.61439", "value": 74.8, "unit": "%"}, {"measurement": "remaining activity", "setting": "[7]; HEK293, 24 h, read-out: luciferase reporter activity (% of no-drug control), N300A, Drug nM (log10) 2.09151", "value": 69.1, "unit": "%"}, {"measurement": "remaining activity", "setting": "[7]; HEK293, 24 h, read-out: luciferase reporter activity (% of no-drug control), N300A, Drug nM (log10) 2.56864", "value": 69.9, "unit": "%"}, {"measurement": "remaining activity", "setting": "[7]; HEK293, 24 h, read-out: luciferase reporter activity (% of no-drug control), N300A, Drug nM (log10) 3.04576", "value": 64, "unit": "%"}, {"measurement": "remaining activity", "setting": "[7]; HEK293, 24 h, read-out: luciferase reporter activity (% of no-drug control), N300A, Drug nM (log10) 3.52288", "value": 62, "unit": "%"}, {"measurement": "remaining activity at 0.004 µM", "setting": "[7]; HEK293, 24 h, read-out: luciferase reporter activity (% of no-drug control), N300A, Drug nM (log10) 4", "value": 67.2, "unit": "%"}, {"measurement": "remaining activity at 0.000508 µM", "setting": "[7]; HEK293, 24 h, read-out: luciferase reporter activity (% of no-drug control), N300A, Drug nM (log10) -0.29409", "value": 96.5, "unit": "%"}, {"measurement": "effect of N300A Sec61α expression on sensitivity in secreted GLuc assay", "setting": "[7]; HEK293 cells", "value": "conferred resistance"}]}]}
